Measurements as given in patent publication US20150018369A1 (priority 2012, published 2015).

Key:
[1] = molecular target: T1, GPR124 (Homo sapiens, UniProt Q96PE1); experiment: ST-11 toxicity in T98 g cells after siRNA knock-down of GPR124; type: cell-based; settings: ST-11 1 μM, siRNA targeting GPR124, viability after three days
T1 construct: endogenous in cells; host or cells: T98g human astrocytoma cells
T1 sequence (Q96PE1 34-1338): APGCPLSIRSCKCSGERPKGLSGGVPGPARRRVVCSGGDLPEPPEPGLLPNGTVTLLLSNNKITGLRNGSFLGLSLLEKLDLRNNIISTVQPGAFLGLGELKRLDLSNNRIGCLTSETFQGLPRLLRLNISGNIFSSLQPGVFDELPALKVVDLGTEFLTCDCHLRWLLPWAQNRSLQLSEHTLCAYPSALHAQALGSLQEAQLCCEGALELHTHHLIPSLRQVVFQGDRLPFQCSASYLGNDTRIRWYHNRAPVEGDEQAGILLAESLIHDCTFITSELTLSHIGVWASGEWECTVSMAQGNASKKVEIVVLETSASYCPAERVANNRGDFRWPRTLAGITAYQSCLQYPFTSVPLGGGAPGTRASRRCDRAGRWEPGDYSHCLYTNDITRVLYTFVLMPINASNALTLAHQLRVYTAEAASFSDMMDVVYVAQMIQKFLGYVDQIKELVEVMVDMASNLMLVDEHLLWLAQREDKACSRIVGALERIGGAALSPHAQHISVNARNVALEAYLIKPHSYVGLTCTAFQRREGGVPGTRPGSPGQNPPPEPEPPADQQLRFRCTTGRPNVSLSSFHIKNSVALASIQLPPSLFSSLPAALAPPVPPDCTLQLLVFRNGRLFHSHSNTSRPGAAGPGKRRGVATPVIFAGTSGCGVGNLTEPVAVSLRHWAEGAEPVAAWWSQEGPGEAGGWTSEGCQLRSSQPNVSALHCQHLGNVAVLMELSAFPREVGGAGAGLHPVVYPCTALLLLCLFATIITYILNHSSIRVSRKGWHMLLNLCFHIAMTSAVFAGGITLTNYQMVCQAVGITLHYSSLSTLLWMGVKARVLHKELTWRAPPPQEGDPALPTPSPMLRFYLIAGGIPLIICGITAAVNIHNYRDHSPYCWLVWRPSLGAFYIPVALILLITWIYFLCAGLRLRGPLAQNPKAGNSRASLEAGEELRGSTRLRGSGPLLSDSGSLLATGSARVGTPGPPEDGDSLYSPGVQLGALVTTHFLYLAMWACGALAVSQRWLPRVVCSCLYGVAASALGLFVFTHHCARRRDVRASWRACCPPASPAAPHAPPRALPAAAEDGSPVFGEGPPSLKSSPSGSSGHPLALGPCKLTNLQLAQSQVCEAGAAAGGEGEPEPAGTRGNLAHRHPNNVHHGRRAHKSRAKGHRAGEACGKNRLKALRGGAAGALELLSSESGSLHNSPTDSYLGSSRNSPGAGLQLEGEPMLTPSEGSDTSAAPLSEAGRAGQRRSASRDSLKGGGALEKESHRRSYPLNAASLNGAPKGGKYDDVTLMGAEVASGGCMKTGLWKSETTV
Method: To determine which of the gene candidate encodes for AI receptors, an siRNA approach is used to knock down each candidate individually to determine which one prevents the toxic effect of ST-11 and thus encodes for AI receptors. The prediction is that knocking down AI receptors prevents the cell death induced by ST-11. T98 g cells were treated with siRNA targeting each of the 39 GPCR gene candidates individually. The first experiment was designed to knock down each GPCR candidate liming a mixture of 3 siRNAs, and thus maximize genetic targeting efficacy. Thus, cells were incubated with siRNA mixtures and then treated with ST-11 (1 μM) and cell viability measured after three days. Only one mixture of siRNAs (that targeting GPR124) decreased the toxicity of ST-11. […] Two of the three siRNAs knocked-down GPR124 expression by more than 80% over 4 days (FIG. 5b). […] The killing effect induced by ST-11 is mediated by GPR124, an AI receptor.

[2] = tested on: T98 g cells; experiment: Cell viability assay (WST-1), SAR of AI compounds at inducing cell death; type: cell-based, human; settings: Homo sapiens, T98G, 72 h
Method: Cells were plated media supplemented with 10% serum in 96-well plates (10^4 cells per wellI; 0.1 ml per well). Once they reached ˜70% confluence, they were rinsed with PBS and kept for an additional 24 his in media supplemented with 1% serum, at which time drugs or vehicle (DMSO, 0.1%, prepared in 10 μl serum-free media) were directly added to each well. After 3 days, cell viability was assessed using the Cell Proliferation Reagent WST-1 (Roche, Indianapolis, Ind.). Briefly, WST-1 reagent (10 μl) was added to each well for 3 hrs at 37° C. with 5% CO2 and WST-1 products were read at 450 nm using Packard SpectraCount™.
Because the strongest toxic effect of WIN55212-2 (ST-1) was measured in T98 g cells, these cells are used as readout to study the structure activity relationship (SAR) of AI compounds at inducing cell death. Table 2 provides the chemical structure, potency and efficacy of several AI compounds.

In the case of `CCn1c(C)c(C(=O)c2ccc(C)c3ccccc23)c2ccccc21` [ST-11], the “ST-11-induced killing of T98 g cells when GPR124 mRNA expression is reduced” value [1] is reported as “reduced” and the EC50 [2] is reported as 1300 nM.
